Source: the supplement of paper PMC10307832

Experiments:
Assay in all cases: relative viability (nuclei count vs DMSO), 5 days (fraction); higher = more cells survive
PAC-1 + Phenformin = compound: C=CCc1cccc(/C=N/NC(=O)CN2CCN(Cc3ccccc3)CC2)c1O [PAC-1] + N=C(N)NC(=N)NCCc1ccccc1 [Phenformin] (partner 250 µM)
Summary of the method: (§1)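 A single step with final 0.05% Triton X-100, 1% formaldehyde and 1 ug/ml Hoechst fixed the cells and stained nuclei 5 days after treatment. Lung cancer cell lines in 1536-well plates had been treated by pin tool the day after seeding with one drug alone or a fixed anchor-drug dose plus five library-drug doses (not always all listed) in √10 steps, and nuclei were counted on 4× images. Relative viability is the ratio of nuclei in treated wells to nuclei in vehicle wells, taken as the median of duplicate plates.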

PAC-1 + OSI-027 = compound: C=CCc1cccc(/C=N/NC(=O)CN2CCN(Cc3ccccc3)CC2)c1O [PAC-1] + COc1cccc2cc(-c3nc([C@H]4CC[C@H](C(=O)O)CC4)n4ncnc(N)c34)[nH]c12 [OSI-027] (partner 0.5 µM)
Summary of the method: as §1

BMX-IN-1 + AZD7762 = compound: C=CC(=O)Nc1cc(-n2c(=O)ccc3cnc4ccc(-c5ccc(NS(C)(=O)=O)cc5)cc4c32)ccc1C [BMX-IN-1] + NC(=O)Nc1cc(-c2cccc(F)c2)sc1C(=O)N[C@H]1CCCNC1 [AZD7762] (partner 0.2 µM)
Summary of the method: as §1

PAC-1 + Crizotinib = compound: C=CCc1cccc(/C=N/NC(=O)CN2CCN(Cc3ccccc3)CC2)c1O [PAC-1] + C[C@@H](Oc1cc(-c2cnn(C3CCNCC3)c2)cnc1N)c1c(Cl)ccc(F)c1Cl [Crizotinib] (partner 1 µM)
Summary of the method: as §1

BMX-IN-1 + Bortezomib = compound: C=CC(=O)Nc1cc(-n2c(=O)ccc3cnc4ccc(-c5ccc(NS(C)(=O)=O)cc5)cc4c32)ccc1C [BMX-IN-1] + CC(C)C[C@H](NC(=O)[C@H](Cc1ccccc1)NC(=O)c1cnccn1)B(O)O [Bortezomib] (partner 0.002 µM)
Summary of the method: as §1

Cell Line | relative viability (PAC-1 + Phenformin; first compound 0.02 µM) | relative viability (PAC-1 + Phenformin; first compound 0.06325 µM) | relative viability (PAC-1 + Phenformin; first compound 0.2 µM) | relative viability (PAC-1 + Phenformin; first compound 2 µM) | relative viability (PAC-1 + OSI-027; first compound 0.02 µM) | relative viability (PAC-1 + OSI-027; first compound 0.06325 µM) | relative viability (PAC-1 + OSI-027; first compound 0.2 µM) | relative viability (PAC-1 + OSI-027; first compound 2 µM) | relative viability (BMX-IN-1 + AZD7762; first compound 0.02 µM) | relative viability (BMX-IN-1 + AZD7762; first compound 0.2 µM) | relative viability (BMX-IN-1 + AZD7762; first compound 0.6325 µM) | relative viability (BMX-IN-1 + AZD7762; first compound 2 µM) | relative viability (PAC-1 + Crizotinib; first compound 0.02 µM) | relative viability (PAC-1 + Crizotinib; first compound 0.06325 µM) | relative viability (PAC-1 + Crizotinib; first compound 0.2 µM) | relative viability (PAC-1 + Crizotinib; first compound 2 µM) | relative viability (BMX-IN-1 + Bortezomib; first compound 0.02 µM) | relative viability (BMX-IN-1 + Bortezomib; first compound 0.2 µM) | relative viability (BMX-IN-1 + Bortezomib; first compound 0.6325 µM) | relative viability (BMX-IN-1 + Bortezomib; first compound 2 µM)
NCI-H1793 | 0.327 | 0.376 | 0.355 | 0.353 | 0.249 | 0.277 | 0.311 | 0.247 | 0.513 | 0.661 | 0.594 | 0.588 | – | – | – | – | – | – | – | –
NCI-H1944 | 0.198 | 0.198 | 0.19 | 0.189 | 0.362 | 0.439 | 0.456 | 0.423 | 0.479 | 0.661 | 0.52 | 0.578 | 1.06 | 1.16 | 1.02 | 1.14 | – | – | – | –
NCI-H2009 | 0.473 | 0.481 | 0.451 | 0.484 | 0.645 | 0.614 | 0.582 | 0.669 | – | – | – | – | 1.04 | 1.05 | 0.979 | 0.964 | 1.07 | 1.19 | 1.16 | 1.01
NCI-H2023 | 0.427 | 0.404 | 0.405 | 0.397 | 0.429 | 0.404 | 0.333 | 0.357 | – | – | – | – | 0.629 | 0.635 | 0.534 | 0.586 | 1.21 | 1.19 | 1.27 | 1.08
NCI-H2170 | 0.426 | 0.356 | 0.422 | 0.384 | 0.701 | 0.631 | 0.784 | 0.645 | 0.945 | 0.98 | 1.03 | 0.928 | 1.15 | 1.25 | 1.14 | 1.03 | – | – | – | –
